Reference: US20250195530A1, “POLQ INHIBITORS” (ASTRAZENECA AB, priority 2022, published 2025)

How the values were obtained:
DLD-1 BRCA2−/− cells = test: Homologous recombination synthetic lethal inhibition of proliferation, DLD-1 BRCA2-/- (Cell Titre Glo 3D); format: cell-based; conditions: Homo sapiens, DLD-1, 288 h, DLD-1 BRCA2−/− cells, 12 days; read-out: POLQ PD Prolif Lumin BRCA2 −/− mean pIC50 (converted)
In short: (§1)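 DLD-1 BRCA2−/− and parental DLD-1 cells exposed to 10-point dose range (10 μM to 0.51 nM, 3-fold) in RPMI/10% FBS at 37 °C, with medium and compound replenished on day 6. Viability by Cell Titre Glo 3D luminescence at day 7 (DLD-1) or day 12 (BRCA2−/−); IC50 as concentration halving maximum signal.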

DLD-1 cells = test: Inhibition of proliferation, DLD-1 BRCA2 wt control (Cell Titre Glo 3D); format: cell-based; conditions: Homo sapiens, DLD-1, 168 h, DLD-1 BRCA2 wt cells, 7 days; read-out: POLQ PD Prolif Lumin DLD1 mean pIC50 (converted)
In short: as §1

SMILES | IC50 (DLD-1 cells) | IC50 (DLD-1 BRCA2−/− cells)
Cc1cnc(Cn2c(-c3ccc(OCCN4CCNCC4)cc3Cl)nc3c(OC4(C)CC4)ncnc32)s1 [Example L3, 2-((8-(2-chloro-4-(2-(piperazin-1-yl)ethoxy)phenyl)-6-(1-methylcyclopropoxy)-9H-purin-9-yl)methyl)-5-methylthiazole] | > 10000 nM | 398 nM
CC1(Oc2ncnc3c2nc(-c2ccc(OCCN4CCNCC4)cc2Cl)n3Cc2cc(C#N)ccn2)CC1 [Example L4, 2-((8-(2-chloro-4-(2-(piperazin-1-yl)ethoxy)phenyl)-6-(1-methylcyclopropoxy)-9H-purin-9-yl)methyl)isonicotinonitrile] | > 10000 nM | 1000 nM
COc1ccnc(Cn2c(-c3ccc(OCCN4CCNCC4)cc3Cl)nc3c(OC4(C)CC4)ncnc32)c1 [Example L5, 8-(2-chloro-4-(2-(piperazin-1-yl)ethoxy)phenyl)-9-((4-methoxypyridin-2-yl)methyl)-6-(1-methylcyclopropoxy)-9H-purine] | > 10000 nM | 1580 nM
CC1(Oc2ncnc3c2nc(-c2ccc(OCCN4CCNCC4)cc2Cl)n3Cc2ncc(Cl)s2)CC1 [Example L6, 5-chloro-2-((8-(2-chloro-4-(2-(piperazin-1-yl)ethoxy)phenyl)-6-(1-methylcyclopropoxy)-9H-purin-9-yl)methyl)thiazole] | > 10000 nM | 398 nM
CC1(Oc2ncnc3c2nc(-c2ccc(OCCN4CCNCC4)cc2Cl)n3Cc2csc(Cl)n2)CC1 [Example L7, 2-chloro-4-((8-(2-chloro-4-(2-(piperazin-1-yl)ethoxy)phenyl)-6-(1-methylcyclopropoxy)-9H-purin-9-yl)methyl)thiazole] | > 10000 nM | 1580 nM
Cc1ccc(Cn2c(-c3ccc(OCCN4CCNCC4)cc3Cl)nc3c(OC4(C)CC4)ncnc32)nc1 [Example L8, 8-(2-chloro-4-(2-(piperazin-1-yl)ethoxy)phenyl)-6-(1-methylcyclopropoxy)-9-((5-methylpyridin-2-yl)methyl)-9H-purine] | > 10000 nM | 2000 nM
Cc1cccnc1Cn1c(-c2ccc(OCCN3CCNCC3)cc2Cl)nc2c(OC3(C)CC3)ncnc21 [Example L9, 8-(2-chloro-4-(2-(piperazin-1-yl)ethoxy)phenyl)-6-(1-methylcyclopropoxy)-9-((3-methylpyridin-2-yl)methyl)-9H-purine] | > 10000 nM | 3160 nM
COc1cccnc1Cn1c(-c2ccc(OCCN3CCNCC3)cc2Cl)nc2c(OC3(C)CC3)ncnc21 [Example L10, 8-(2-chloro-4-(2-(piperazin-1-yl)ethoxy)phenyl)-9-((3-methoxypyridin-2-yl)methyl)-6-(1-methylcyclopropoxy)-9H-purine] | > 10000 nM | 3160 nM
CC1(Oc2cccc3c2nc(-c2ccc(OCCN4CCNCC4)cc2Cl)n3Cc2ccccn2)CCC1 [Example P1, 2-(2-chloro-4-(2-(piperazin-1-yl)ethoxy)phenyl)-4-(1-methylcyclobutoxy)-1-(pyridin-2-ylmethyl)-1H-benzo[d]imidazole] | > 10000 nM | 1260 nM
CC1(Oc2cccc3c2nc(-c2ccc(OCCN4CCNCC4)cc2Cl)n3Cc2ccccc2)CCC1 [Example P2, 1-benzyl-2-(2-chloro-4-(2-(piperazin-1-yl)ethoxy)phenyl)-4-(1-methylcyclobutoxy)-1H-benzo[d]imidazole] | 2510 nM | 794 nM

Now from value to compound, other results behind:

IC50 (DLD-1 cells) | SMILES | IC50 (DLD-1 BRCA2−/− cells)
> 10000 nM | CC1(Oc2ncnc3c2nc(-c2ccc(N4CC(N)C4)cc2Cl)n3Cc2ccccc2)CC1 [Example M1, 1-(4-(9-benzyl-6-(1-methylcyclopropoxy)-9H-purin-8-yl)-3-chlorophenyl)azetidin-3-amine] | 501 nM
5010 nM | CC1(Oc2ncnc3c2nc(-c2ccc(N4CCC(N)CC4)cc2Cl)n3Cc2ccccc2)CC1 [Example M2, 1-(4-(9-benzyl-6-(1-methylcyclopropoxy)-9H-purin-8-yl)-3-chlorophenyl)piperidin-4-amine] | 316 nM
7940 nM | CC1(Oc2ncnc3c2nc(-c2ccc(N4CCNC(=O)C4)cc2Cl)n3Cc2ccccc2)CC1 [Example M3, 4-(4-(9-benzyl-6-(1-methylcyclopropoxy)-9H-purin-8-yl)-3-chlorophenyl)piperazin-2-one] | 501 nM
> 10000 nM | CC1(Oc2ncnc3c2nc(-c2ccc(/C=C/C(=O)O)cc2Cl)n3Cc2ccccc2)CC1 [Example M4, (E)-3-(4-(9-benzyl-6-(1-methylcyclopropoxy)-9H-purin-8-yl)-3-chlorophenyl)acrylic acid] | 631 nM
> 10000 nM | CC1(Oc2ncnc3c2nc(-c2ccc(OCCN4CCNCC4=O)cc2Cl)n3Cc2ccccc2)CC1 [Example M5, 1-(2-(4-(9-benzyl-6-(1-methylcyclopropoxy)-9H-purin-8-yl)-3-chlorophenoxy)ethyl)piperazin-2-one] | 100 nM
> 10000 nM | CN(C)C(=O)c1ccc(-c2nc3c(OC4(C)CC4)ncnc3n2Cc2ccccc2)c(Cl)c1 [Example N1, 4-(9-benzyl-6-(1-methylcyclopropoxy)-9H-purin-8-yl)-3-chloro-N,N-dimethylbenzamide] | 200 nM
> 10000 nM | CNC(=O)c1ccc(-c2nc3c(OC4(C)CC4)ncnc3n2Cc2ccccc2)c(Cl)c1 [Example N2, 4-(9-benzyl-6-(1-methylcyclopropoxy)-9H-purin-8-yl)-3-chloro-N-methylbenzamide] | 251 nM
> 10000 nM | CC1(Oc2ncnc3c2nc(-c2ccc(C(=O)N4CCNCC4)cc2Cl)n3Cc2ccccc2)CC1 [Example N3, (4-(9-benzyl-6-(1-methylcyclopropoxy)-9H-purin-8-yl)-3-chlorophenyl)(piperazin-1-yl)methanone] | 794 nM
> 10000 nM | CC1(Oc2ncnc3c2nc(-c2ccc(C(N)=O)cc2Cl)n3Cc2ccccc2)CC1 [Example N4, 4-(9-benzyl-6-(1-methylcyclopropoxy)-9H-purin-8-yl)-3-chlorobenzamide] | 200 nM
3980 nM | CC1(Oc2ncnc3c2nc(-c2ccc(CN4CCCC4)cc2Cl)n3Cc2ccccc2)CC1 [Example N5, 9-benzyl-8-(2-chloro-4-(pyrrolidin-1-ylmethyl)phenyl)-6-(1-methylcyclopropoxy)-9H-purine] | 100 nM
3980 nM | CC1(Oc2ncnc3c2nc(-c2ccc(CN4CCNCC4)cc2Cl)n3Cc2ccccc2)CC1 [Example N6, 9-benzyl-8-(2-chloro-4-(piperazin-1-ylmethyl)phenyl)-6-(1-methylcyclopropoxy)-9H-purine] | 100 nM
6310 nM | CC1(Oc2ncnc3c2nc(-c2ccc(CN)cc2Cl)n3Cc2ccccc2)CC1 [Example N7, (4-(9-benzyl-6-(1-methylcyclopropoxy)-9H-purin-8-yl)-3-chlorophenyl)methanamine] | 631 nM
> 10000 nM | COc1ccc(-c2nc3c(OC4(C)CC4)ncnc3n2Cc2ccccc2)c(Cl)c1 [Example N8, 9-Benzyl-8-(2-chloro-4-methoxyphenyl)-6-(1-methylcyclopropoxy)-9H-purine] | 251 nM
> 10000 nM | COc1ncccc1-c1nc2c(OC3(C)CC3)ncnc2n1Cc1ccccc1 [Example N9, 9-benzyl-8-(2-methoxypyridin-3-yl)-6-(1-methylcyclopropoxy)-9H-purine] | 1260 nM
